Measurements reported in EP1234508A1, “Antiprotozoal methods, compositions and feedstuffs” (UNIVERSITEIT GENT, priority 2001, dated 2002).

Assay: Onset of egg laying and egg weight in hens treated via drinking water, Example 3
Type: in vivo
Experimental: The end of the development of the reproductive organ of laying hens starts on the age of 15 weeks and continues during 7 weeks. 10 laying hens were treated with L-arginine via drinking water from the age of 15 weeks till the age of 21 weeks and 10 laying hens were used as a control group. L-arginine was dosed at 15 mg per kg weight per day. L-arginine free base or a L-arginine salt such as hydrochloride may be given daily in a dose of about 5 - 200 mg up to 5 to about 1000 mg per kg bodyweight per day. Light schemes were taken into account: 8 hours light at the age of 15 and 16 weeks old, 9 hours at 17 weeks, 10 hours at 18 weeks, 11 hours at 19 weeks, 12 hours at 20 weeks and 13 hours at 21 weeks old. The treatment with L-arginine was started on the age of 15 weeks. After 40 days of treatment, 3 of 10 chickens treated with L-arginine started laying while one chicken of the control group started laying four days later (Fig. 5). It is unexpected that the onset of egg-laying is earlier than in the control group which is a commercially important aspect of the present invention. The average weight of the eggs (number of eggs ≥ 3) was above 50 g after 46 days in the treated group while in the control group after 54 days the average weight of at least 3 eggs was above 50 g (Fig 6). Again this improvement is unexpected and is of commercial value.

N=C(N)NCCCC(N)C(=O)O [L-arginine, 2-amino-5-guanidinovaleric acid]
chickens started laying (after 40 days of treatment, 15 mg per kg weight per day via drinking water from the age of 15 weeks, Fig. 5): 3 of 10
average weight of the eggs (number of eggs ≥ 3) (after 46 days in the treated group, 15 mg per kg weight per day via drinking water, Fig. 6): above 50 g
